Test [1] deals with Murine CT-26 colon carcinoma cells. The experiment in a line: CT-26 syngeneic colon carcinoma model, intratumoral or intravenous monotherapy (Example 10, studies 1-3). Type of test: in vivo, Balb/c mice. How it is done:
The in vivo anti-tumor efficacy of the TLR4 agonist (CRX-601) was assessed in the murine CT-26 colon carcinoma syngeneic solid tumor model as a monotherapy and in combination with […] a therapeutic antibody (combination data not shown). Seven to eight week old female Balb/c mice (BALB/cAnNCrl, Charles River) were used in these studies. Murine CT-26 colon carcinoma cells (ATCC catalog number CRL-2638 lot #59227052) were cultured in RPMI growth medium supplemented with 10% fetal bovine serum (FBS) in a humidified 37° C. incubator with 5% CO2, CT-26 cells cultured in logarithmic growth were harvested from tissue culture flasks and centrifuged for 5 minutes at 450×g at 4° C. for ten minutes to pellet cells. The supernatant was discarded, and cells were washed in ice cold phosphate buffered saline (PBS) without calcium and magnesium and centrifuged again for 5 minutes at 450×g at 4° C. for ten minutes to pellet cells. The cells were resuspended in sterile RPMI media without FBS and adjusted to a cell concentration of 500,000 cells/ml, 100 μl of the cell stock was implanted via subcutaneous injection into the right flank of each Balb/c mouse. After ten or eleven days when the average tumor size reached approximately 100 mm^3, mice were randomized into study cohorts according to tumor size and the first treatment dose was given. The TLR4 agonist (CRX-601) or vehicle was dosed via a systemic intravenous or direct intratumoral injection as indicated. The CRX-601 vehicle used for intravenous and intratumoral dosing was […] where indicated. For CRX-601 liposomal intratumoral dosing, a DOPC/CHOL liposome prepared by GSK Lot #1783-157-B was used. The therapeutic antibody was dosed via an intraperitoneal injection given twice per week for a total of six doses. Caliper measurements were taken three times per week to assess tumor growth, and mice with tumors <2,000 mm^3 were maintained on study from 30 up to approximately 115 days. Mice with tumors >2,000 mm^3 for 2 consecutive measurements or mice with tumors which formed open ulcers were removed from the study. Tumor volume was calculated using the formula (0.52)×(Length)×(Width^2). In study 3, tumor-free mice were re-challenged with CT-26 tumor cells as described above, on the opposite flank from the original inoculation site and tumor growth was monitored, as described above. All studies were conducted in accordance with the GSK Policy on the Care, Welfare and Treatment of Laboratory Animals and were reviewed by the Institutional Animal Care and Use Committee at GSK.
For studies 1 and 2, to determine significance of tumor growth inhibition, tumor volumes at 11 study 1) or 15 (study 2) days after first dose were compared between the different treatment groups. Prior to the analysis, tumor volumes were natural log transformed due to the inequality of variance in the different treatment groups. ANOVA followed by pair-wise comparison was then carried out on the log transformed data. SAS 9.3 and R 3.0.2 analysis software was used. Kaplan-Meier (KM) method was carried out to estimate the survival probability of different treatment groups at a given time. The event for survival analysis was tumor volume of 2000 mm^3 or tumor ulceration, whichever came first. The exact time to cut-off volume was estimated by fitting a linear line between log tumor volume and day of two observations, the first observation that exceed the cut-off volume and the one observation that immediately preceded the cut-off volume. The median time to endpoint and its corresponding 95% confidence interval was calculated. Whether or not KM survival curves were statistically different between any two groups was then tested by log-rank test. The raw p-value, as well as the false discovery rate (FDR) adjusted p-values, from the comparisons of days to events by survival analysis and the comparisons of log transformed tumor volume at indicated days between treatment groups was determined. […]

The subject of test [2] is CT-26 colorectal tumor cells. The test is described as follows: CT-26 syngeneic colon carcinoma model, escalating i.p. doses (Example 9). Type of test: in vivo, Balb/c mice. The following applies: CRX-601, similar experiment; 4, 20 or 100 ug.

The structures appear in SMILES notation. Several values for one entry are separate records, joined by “and”; a condition that tells them apart may be missing. Identical values can stand only once.

Take `CCCCCCCCCCC[C@H](CC(=O)N[C@H]1[C@H](OC[C@H](NC(=O)C[C@@H](CCCCCCCCCCC)OCCCCCCCCCC)C(=O)O)O[C@H](CO)[C@@H](OP(=O)(O)O)[C@@H]1OC(=O)C[C@@H](CCCCCCCCCCC)OCCCCCCCCCC)OCCCCCCCCCC` [CRX-601]: the “tumor status of single mouse remaining on study” value in test [1] (study 1, 10 ug intratumoral group, day 42) was “tumor-free”. The “tumor growth inhibition compared to vehicle” value in test [1] (study 1, 10 ug/mouse intratumoral twice per week, 6 doses, 11 days after the initial dose, p-values 0.05) is “statistically significant”; in test [1] (study 1, 50 ug/mouse intratumoral single dose, 11 days after the initial dose, p-values 0.05), “statistically significant”; in test [1] (study 2, 10 ug/mouse intravenous twice per week, 6 doses, 15 days after the initial dose, p-values<=0.05), “statistically significant”; in test [1] (study 2, 100 ug/mouse intravenous single dose, 15 days after the initial dose, p-values<=0.05), “statistically significant”. Also, the “tumor-free mice among mice remaining on study” value is recorded as “Three of the four” in test [1] (study 1, 50 ug intratumoral group, day 42) and “One of the three” in test [1] (study 2, 100 ug intravenous group, day 32). For the same compound, in test [1] (study 1, 50 ug intratumoral group, fourth mouse, day 42), the “tumor volume of remaining tumor-bearing mouse” value is listed as 854.19 mm^3. In addition, the “increase in survival compared to vehicle” value is “statistically significant” in test [1] (study 1, 50 ug intratumoral single dose, by day 42 post CT26 inoculation, p-values<=0.05) and “statistically significant increase” in test [1] (study 2, 100 ug intravenous single dose, day 32 post CT-26 inoculation, p-values<=0.05). Moreover, the “anti-tumor activity (tumor growth inhibition over time)” value is “dose-dependent anti-tumor activity” in test [1] (study 1, intratumoral dosing 0.1, 1, 10 ug/mouse twice per week x6 or 50 ug single dose) and “dose-dependent anti-tumor activity” in test [1] (study 2, intravenous dosing 1, 10 ug/mouse twice per week x6 or 100 ug single dose). The “tumor volume of single mouse remaining on study” value in test [1] (study 2, 10 ug intravenous group, day 32) stood at 188.0 mm^3. In addition, the “tumor volumes of remaining tumor-bearing mice” value in test [1] (study 2, 100 ug intravenous group, day 32, individual mice) was 1500.49 mm^3 and 962.61 mm^3. Further, the “CT26 tumor growth on re-challenge” value in test [1] (study 3, fully regressed tumor-free mice re-challenged on day 80, opposite flank, vs naive control mice) is “rejected with no tumor growth”. Besides, the “mice showing full tumor regressions” value in test [1] (study 3 Group 2, 25 ug/mouse IV once per week x3) is 5 out of 10. Besides, the “increase in survival compared to control Group 1” value in test [1] (study 3 Group 2, 25 ug/mouse IV once per week x3, 80 days after the first dose, p-values<=0.05) is “statistically significant”. Further, the “tumor growth inhibition compared to control Group 1” value in test [1] (study 3 Group 2, 25 ug/mouse intravenous in 0.5% Glycerol/4% dextrose once per week x3 (+Rat IgG1), 12 days after the initial dose, p-values<=0.05) was “statistically significant”. In test [1] (study 3 Group 7, 25 ug/mouse intratumoral DOPC/CHOL liposome once per week x3, 80 days after the first dose, p-values<=0.05), the “increase in survival compared to control Group 5” value is given as “statistically significant”. Further, in test [1] (study 3 Group 7, 25 ug/mouse intratumoral in DOPC/CHOL liposome once per week x3 (+Rat IgG1), 12 days after the initial dose, p-values<=0.05), the “tumor growth inhibition compared to control Group 5” value is reported as “statistically significant”. In test [2], the tumor growth result is reported as “inhibited tumor growth”.

The values above are taken from patent US10765690B2, “TLR4 agonists and compositions thereof and their use in the treatment of cancer” (GlaxoSmithKline Intellectual Property Development Limited, priority 2015, dated 2020).
